Assay results published in patent US20150105252A1, “SUBSTITUTED PYRAZOLES AS HERBICIDES” (E I DU PONT DE NEMOURS AND COMPANY, priority 2013, published 2015).

Assays:
ragweed = assay: Test C postemergence; format: in vivo, Ambrosia elation; settings: for Plant response rating, Ragweed / Ragweed plant response rating: postemergence; for Ragweed plant response rating: scale 0 to 100; for Plant response rating (scale of 0 to 100 where 0 is no effect and 100 is complete control), Ragweed: 31 g ai/ha, visually evaluated after 13 to 15 days
Text: (§1) Seeds of plant species selected from blackgrass (Alopecurus myosuroides), ryegrass, Italian (Italian ryegrass, Lolium multiflorum), wheat (winter wheat, Triticum aestivum), galium (catchweed bedstraw, Galium aparine), corn (Zea mays), crabgrass, large (large crabgrass, Digitaria sanguinalis), foxtail, giant (giant foxtail, Setaria faberii), johnsongrass (Sorghum halepense), lambsquarters (Chenopodium album), morningglory (Ipomoea coccinea), nutsedge, yellow (yellow nutsedge, Cyperus esculentus), pigweed (redroot pigweed, Amaranthus retroflexus), ragweed (common ragweed, Ambrosia elation), soybean (Glycine max), barnyardgrass (Echinochloa crus-galli), oilseed rape (Brassica napus), waterhemp (common waterhemp, Amaranthus rudis), oat, wild (wild oat, Avena fatua), kochia (Kochia scoparia), Surinam grass (Brachiaria decumbens), foxtail, green (green foxtail, Setaria viridis), goosegrass (Eleusine indica), bromegrass, downy (downy bromegrass, Bromus tectorum), nightshade (eastern black nightshade, Solanum ptycanthum), cocklebur (common cocklebur, Xanthium strumarium), cupgrass, woolly (woolly cupgrass, Eriochloa villosa), bermudagrass (Cynodon dactylon), sunflower, (common oilseed sunflower, Helianthus annuus), Russian thistle (Salsola kali), and velvetleaf (Abutilon theophrasti) were planted into a blend of loam soil and sand and treated preemergence with test chemicals formulated in a non-phytotoxic solvent mixture which included a surfactant.
(§2) At the same time, plants selected from these crop and weed species and also chickweed (common chickweed, Stellaria media), canarygrass (littleseed canarygrass, Phalaris minor), and deadnettle (henbit deadnettle, Lamium amplexicaule), were planted in pots containing Redi-Earth® planting medium (Scotts Company, 14111 Scottslawn Road, Marysville, Ohio 43041) comprising spaghnum peat moss, vermiculite, wetting agent and starter nutrients and treated with postemergence applications of test chemicals formulated in the same manner. Plants ranged in height from 2 to 18 cm (1- to 4-leaf stage) for postemergence treatments. Treated plants and controls were maintained in a greenhouse for 13 to 15 days, after which time all species were compared to controls and visually evaluated. Plant response ratings, summarized in Table C, are based on a scale of 0 to 100 where 0 is no effect and 100 is complete control. A dash (-) response means no test result.

corn = assay: Test C postemergence; format: in vivo, Zea mays; settings: for Corn plant response rating: scale 0 to 100; for Plant response rating (scale of 0 to 100 where 0 is no effect and 100 is complete control), Corn: visually evaluated after 13 to 15 days
Text: as §1, §2

barnyardgrass = assay: Test A preemergence; format: in vivo, Echinochloa crus-galli
Summary of the method: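 Visual injury ratings, 0 = no effect to 100 = complete control, taken about 10 days after treatment against untreated controls. Test chemicals, in a non-phytotoxic surfactant-containing solvent, were sprayed onto soil preemergence or onto one- to two-leaf plants (2–10 cm) postemergence, in loam–sand soil under greenhouse conditions.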

[1] = 250 g ai/ha, scale 0 to 100 (0 no effect, 100 complete control)
[2] = 62 g ai/ha, scale 0 to 100, 0 no effect, 100 complete control
[3] = 125 g ai/ha, scale 0 to 100, 0 no effect, 100 complete control
[4] = postemergence, 250 g ai/ha, scale 0 to 100 (0 no effect, 100 complete control)
[5] = postemergence, 62 g ai/ha, scale 0 to 100, 0 no effect, 100 complete control
[6] = postemergence, 125 g ai/ha, scale 0 to 100, 0 no effect, 100 complete control
[7] = Preemergence, 1000 g ai/ha, 0 to 100 scale, 0 no effect, 100 complete control
[8] = Preemergence, 500 g ai/ha, 0 to 100 scale, 0 no effect, 100 complete control
[9] = preemergence, 125 g ai/ha, visual injury, 0 to 100 scale, approx. 10 days
[10] = preemergence, 500 g ai/ha, visual injury after approx. 10 days, 0 to 100 scale (0 no effect, 100 complete control)

## CCc1cc(C(=O)NCC(F)(F)F)nn1Cc1cccc(OC(F)(F)F)c1 [Compound 20]
ragweed; [1]
  Plant response rating, Ragweed: 25
ragweed; [2]
  Plant response rating, Ragweed: 15
ragweed; [3]
  Plant response rating, Ragweed: 15
corn; Postemergence, 31 g ai/ha
  Corn plant response rating: 15
corn; [4]
  Plant response rating, Corn: 25
corn; [5]
  Plant response rating, Corn: 20
corn; [6]
  Plant response rating, Corn: 20
barnyardgrass; [7]
  Barnyardgrass plant response rating: 80

## CCCNC(=O)c1cc(CC)n(Cc2cccc(OC(F)(F)F)c2)n1 [Compound 27]
ragweed; [1]
  Plant response rating, Ragweed: 10
ragweed; [2]
  Plant response rating, Ragweed: 0
ragweed; [3]
  Plant response rating, Ragweed: 5
corn; Postemergence, 31 g ai/ha
  Corn plant response rating: 10
corn; [4]
  Plant response rating, Corn: 15
corn; [5]
  Plant response rating, Corn: 10
corn; [6]
  Plant response rating, Corn: 15
barnyardgrass; [7]
  Barnyardgrass plant response rating: 50

## CCCNC(=O)c1cc(CC)n(Cc2ccnc(C(F)(F)F)c2)n1 [Compound 75]
ragweed; Postemergence, 16 g ai/ha
  Plant response rating (scale of 0 to 100), Ragweed: 40
ragweed; 62 g ai/ha
  Ragweed plant response rating: 70
ragweed; [3]
  Plant response rating, Ragweed: 85
corn; Postemergence, 16 g ai/ha
  Plant response rating (scale of 0 to 100), Corn: 0
corn; Postemergence, 31 g ai/ha
  Corn plant response rating: 5
corn; postemergence, 62 g ai/ha
  Corn plant response rating: 20
corn; [6]
  Plant response rating, Corn: 40
barnyardgrass; [8]
  Barnyardgrass plant response rating: 100
barnyardgrass; [9]
  Barnyardgrass plant response rating: 100

## CCc1cc(C(=O)NC2CC2)nn1Cc1ccnc(C(F)(F)F)c1 [Compound 76]
ragweed; Postemergence
  Plant response rating (scale of 0 to 100 where 0 is no effect and 100 is complete control), Ragweed: 55
ragweed; 62 g ai/ha
  Ragweed plant response rating: 75
ragweed; [1]
  Plant response rating, Ragweed: 90
ragweed; [3]
  Plant response rating, Ragweed: 75
corn; Postemergence, 31 g ai/ha
  Plant response rating (scale of 0 to 100 where 0 is no effect and 100 is complete control), Corn: 5
corn; postemergence, 62 g ai/ha
  Corn plant response rating: 10
corn; [6]
  Plant response rating, Corn: 20
barnyardgrass; [8]
  Barnyardgrass plant response rating: 100
barnyardgrass; [9]
  Barnyardgrass plant response rating: 80

## CCc1cc(C(=O)NCC(F)(F)F)nn1Cc1nc(C(F)(F)F)nn1C [Compound 107]
ragweed; Postemergence
  Plant response rating (scale of 0 to 100 where 0 is no effect and 100 is complete control), Ragweed: 10
ragweed; 62 g ai/ha
  Ragweed plant response rating: 65
ragweed; [1]
  Plant response rating, Ragweed: 90
ragweed; [3]
  Plant response rating, Ragweed: 85
corn; Postemergence, 31 g ai/ha
  Plant response rating (scale of 0 to 100 where 0 is no effect and 100 is complete control), Corn: 5
corn; postemergence, 62 g ai/ha
  Corn plant response rating: 5
corn; [4]
  Plant response rating, Corn: 40
corn; [6]
  Plant response rating, Corn: 5
barnyardgrass; [9]
  Barnyardgrass plant response rating: 100
barnyardgrass; [10]
  Barnyardgrass plant response rating: 100

## CCc1cc(C(=O)NCC(F)(F)F)nn1Cc1cc(C(F)(F)F)nn1C [Compound 108, 5-ethyl-1-[[1-methyl-3-(trifluoromethyl)-1H-pyrazole-5-yl]methyl]-N-(2,2,2-trifluoroethyl)-1H-pyrazole-3-carboxamide]
ragweed; Postemergence
  Plant response rating (scale of 0 to 100 where 0 is no effect and 100 is complete control), Ragweed: 10
ragweed; 62 g ai/ha
  Ragweed plant response rating: 50
ragweed; [1]
  Plant response rating, Ragweed: 85
ragweed; [3]
  Plant response rating, Ragweed: 50
corn; Postemergence, 31 g ai/ha
  Plant response rating (scale of 0 to 100 where 0 is no effect and 100 is complete control), Corn: 5
corn; postemergence, 62 g ai/ha
  Corn plant response rating: 5
corn; [4]
  Plant response rating, Corn: 35
corn; [6]
  Plant response rating, Corn: 15
barnyardgrass; [9]
  Barnyardgrass plant response rating: 90
barnyardgrass; [10]
  Barnyardgrass plant response rating: 100

## CCc1cc(-c2ccc(C(F)(F)F)cc2)nn1Cc1ccnc(C(F)(F)F)c1 [Compound 110]
ragweed; Postemergence
  Plant response rating (scale of 0 to 100 where 0 is no effect and 100 is complete control), Ragweed: 50
ragweed; 62 g ai/ha
  Ragweed plant response rating: 80
ragweed; [1]
  Plant response rating, Ragweed: 80
ragweed; [3]
  Plant response rating, Ragweed: 80
corn; postemergence, 62 g ai/ha
  Corn plant response rating: 15
corn; [4]
  Plant response rating, Corn: 25
corn; [6]
  Plant response rating, Corn: 25
barnyardgrass; [9]
  Barnyardgrass plant response rating: 100
barnyardgrass; [10]
  Barnyardgrass plant response rating: 100
